We go through three molecules from patent US20040068005A1, “Pharmaceutical combinations” (priority 2000, published 2004).

The test system of assay [1] is healthy volunteers. Kind of assay: Oral glucose tolerance test (OGTT) with nitroglycerin patch, plasma glucose and immunoreactive insulin. Particulars: for Insulin / Glucose: OGTT. Format: in vivo, human. As for the experimental part:
Twenty persons were studied.
Between 2 oral glucose, tolerance tests (OGTT) the volunteers were randomized for receiving either active NITRODERM TTS 10 (releasing approx. 0.4 mg hours^−1 nitroglycerin) or placebo patches. The study was carried out and evaluated in a double blind fashion. The patients received the glucose solution at 8 a.m. Venous blood samples were taken during fasting (immediately before glucose) and at 15, 30, 60, 90, 120 and 180 minutes after the glucose load. The samples evaluated for plasma glucose level (mmol 1^−1) and immunoreactive insulin responses (eU ml^−1). Plasma glucose was determined by means of an autoanalyzer, using the glucoseoxidease method. Immunoreactive insulin levels were assessed by radioimmunoassay method using antihuman antibody. During the study, two ECG leads (II and V1 or V6) and arterial blood pressure were continuously monitored.

In assay [2] the test system is streptozotocin diabetic rabbits. Kind of assay: Femoral nerve conduction velocity, streptozotocin diabetes. The class given is in vivo, New Zealand white rabbits. As for the experimental part:
(§1) The experiments are carried out with adult, male New Zealand white rabbits, weighing 3.0-3.5 kg, housed as described in Am. J. Physiol 1994, Heart Circ. Physiol, 35: H2033-H2041 and J. Moll Cell.. Cardiol. 1997, 29: 1977-1983.
These series of experiments were carried out to verify/exclude sensory neuropathy. Left saphenous nerve conduction velocity was determined as described in Eur J. Pharmacol 1999, 386:83-88.
Streptozotocin (40 mg/kg i.v.) produced a decrease in nerve conduction velocity in femoral “A” and “C” fibres, respectively, as determined 8 weeks after streptozotocin injection. […] The combination of any of these drugs with nitroglycerin yielded an improvement of conduction velocity in streptozotocin-diabetic aminals similar to that seen with nitroglycerin alone.

The subject of assay [3] is normal conscious rabbits. Kind of assay: Ventricular pacing-induced myocardial ischaemia (ST-segment elevation), normal rabbits. Format: in vivo, New Zealand white rabbits. As for the experimental part:
(§2) The experiments are carried out with adult, male New Zealand white rabbits, weighing 3.0-3.5 kg, housed as described in Am. […] Physiol, 35: H2033-H2041 and J. Moll Cell.. Cardiol.
(§3) The induction of global myocardial ischaemia was based on a method described as above.

Assay [4] has as its system hypercholesterolaemic, insulin resistant rabbits. Kind of assay: Femoral nerve conduction velocity, hyperlipidaemia-induced insulin resistance. The class given is in vivo, New Zealand white rabbits. How it is done: as §2
These series of experiments were carried out to verify/exclude sensory neuropathy.

Assay [5] concerns normal conscious rabbits. Kind of assay: Hyperinsulinaemic euglycaemic glucose clamping (insulin sensitivity), normal rabbits. The class given is in vivo, New Zealand white rabbits. How it is done: as §1
(§4) To estimate insulin sensitivity and/or insulin resistance, hyperinsulinaemic (100 eU/ml) euglycaemic (5.5 mM/l) glucose clamping was used. The glucose clamping values (M) were established as values of glucose infusion rates expressed in mg/kg/min to maintain blood glucose level at 5.5 mM/l.

Assay [6] relates to hypercholesterolaemic, insulin resistant conscious rabbits. Kind of assay: Ventricular pacing-induced myocardial ischaemia (ST-segment elevation), hypercholesterolaemic rabbits. Format: in vivo, New Zealand white rabbits. The note with it: hypercholesterolaemic. As for the experimental part: as §2, §3
For assay [7] the test system is unchanged. Kind of assay: Hyperinsulinaemic euglycaemic glucose clamping (insulin sensitivity), hypercholesterolaemic rabbits. The class given is in vivo, New Zealand white rabbits. The note with it: for Glucose infusion rate / M values of hyperinsulinaemic and euglycaemic glucose clamping: hypercholesterolaemic; for Glucose infusion rate: insulin resistant rabbit; for Insulin sensitivity: percent of means, control = 100. As for the experimental part: as §2, §4

The subject of assay [8] is isolated pancreatic islets. Particulars: Am. J. Physiol 1996;271;C1098-C1102; cited from earlier work.
For assay [9], the system named is human. Particulars: controlled release ISMN preparations; cited from earlier work.
Setting [10] is: sampling 0 (control), active patch approx. 0.4 mg/hour nitroglycerin, n=20.
[11] abbreviates: Table I, sampling 0 (control), active patch.
Where [12] appears, read: normal rabbits, 2 mg/kg per os ISMN.
Setting [13] is: normal rabbits, 2 mg/kg per os controlled release ISMN.
The mark [14] stands for this setting: normal rabbits, 4 mg/kg per os controlled release ISMN.

On to `O=[N+]([O-])OCC(CO[N+](=O)[O-])O[N+](=O)[O-]` [Nitroglycerin, nitroglycerin], for which the Insulin is 38.9 ± 4.4^#+ μU ml^−1 in assay [1] (15 min, active patch); 36.3 ± 5.0^#+ μU ml^−1 in assay [1] (30 min, active patch); 25.6 ± 3.3^#+ μU ml^−1 in [1] (60 min, active patch); 24.1 ± 2.9^#+ μU ml^−1 in [1] (90 min, active patch); 15.2 ± 2.4^+ μU ml^−1 in assay [1] (120 min, active patch); 14.4 ± 2.6^ μU ml^−1 in [1] (180 min, active patch). Moreover, the Insulin in assay [1] (setting [10]) is 8.2 ± 0.9^ μU ml^−1; in assay [1] (Table I, 15 min, active patch), 38.9 ± 4.4 μU mL^−1; in assay [1] (Table I, 30 min, active patch), 36.3 ± 5.0 μU mL^−1; in assay [1] (Table I, 60 min, active patch), 25.6 ± 3.3 μU mL^−1; in [1] (Table I, 90 min, active patch), 24.1 ± 2.9 μU mL^−1; in assay [1] (Table I, 120 min, active patch), 15.2 ± 2.4 μU mL^−1. For the same molecule, the Insulin in assay [1] (Table I, 180 min, active patch) is on record as 14.4 ± 2.6 μU mL^−1; in assay [1] (setting [11]), 8.2 ± 0.9 μU mL^−1. Besides, the Glucose was 7.3 ± 1.1^+ mmol l^−1 in [1] (15 min after glucose load, active patch); 6.1 ± 0.6^+ mmol l^−1 in assay [1] (30 min, active patch); 5.5 ± 0.4 mmol/L in assay [1] (60 min, active patch); 4.7 ± 0.7 mmol/L in assay [1] (90 min, active patch); 4.2 ± 0.3 mmol/L in [1] (120 min, active patch); 4.5 ± 0.5 mmol/L in assay [1] (180 min, active patch). Besides, the Glucose in assay [1] (setting [10]) came out at 4.2 ± 0.3 mmol/L; in assay [1] (Table I, 15 min, active patch), 7.3 ± 1.1 mmol⁻¹; in assay [1] (Table I, 30 min, active patch) it was 6.1 ± 0.6 mmol⁻¹; in assay [1] (Table I, 60 min, active patch), 5.5 ± 0.4 mmol⁻¹; in assay [1] (Table I, 90 min, active patch), 4.7 ± 0.7 mmol⁻¹; in [1] (Table I, 120 min, active patch) it was 4.2 ± 0.3 mmol⁻¹. In addition, the Glucose in [1] (Table I, 180 min, active patch) came out at 4.5 ± 0.5 mmol⁻¹; in [1] (setting [11]) it was 4.2 ± 0.3 mmol⁻¹. Besides, the plasma glucose levels result in [1] (active vs placebo patch group) is on record as “no differences”. In addition, in assay [1] (compared to placebo patch group), the “increase in insulin in response to oral glucose load” value is given as “significantly decreased”. The Nerve conduction velocity in assay [2] (femoral “C” fibers, streptozotocin diabetic rabbit, with active patch (nitroglycerin 0.07 mg/kg/h), alone (Control) or with the drug) amounted to 3.6 ± 0.2 dm/s; in assay [4] (femoral “C” fibers, hypercholesterolaemic, insulin resistant rabbit, with active patch (nitroglycerin 0.07 mg/kg/h), alone (Control) or with troglitazon 70 mg/kg p.os) it was 4.3 ± 0.4 dm/s. Also, the “nerve conduction in “C” fibres” value in assay [2] (streptozotocin-diabetes model, drug alone, nitroglycerin 12-h patch on vs 12-h patch off over three days) was “significantly improved”. Also, the ““A” fibre conduction” value in [2] (streptozotocin-diabetes model, nitroglycerin patch, data not shown) is “marginal amelioration”. In addition, in [3] (normal conscious rabbits, drug alone), the “intracavitary ST-segment elevation” value was “significantly decreased”. Moreover, the ST-segment elevation worked out at 0.7 ± 0.10 mV in assay [3] (normal rabbit, with active patch (nitroglycerin 0.07 mg/kg/h), alone (Control) or with the drug) and 1.4 ± 0.10 mV in assay [6] (insulin resistant rabbit, with active patch (nitroglycerin 0.07 mg/kg/h), alone (Control) or with the drug). For the same molecule, the “decrease in nerve conduction velocity in “C” fibres after atherogenic diet” value in assay [4] (eight-week atherogenic diet, drug alone) is on record as “attenuated”. The Glucose infusion rate in [5] (normal rabbit, with active patch (nitroglycerin 0.07 mg/kg/h), alone (Control) or together with the drug, troglitazon 70 mg/kg p.os, metformin 5 mg/kg i.v., glibenclamide 1 mg/kg i.v., idazoxan 2 mg/kg i.v.) came to 16.857 mg/kg/min; in [7] (with active patch (nitroglycerin 0.07 mg/kg/h), alone (Control) or together with the drug, same doses) it was 12.667 mg/kg/min. Besides, the “intracavitary ST-segment elevation / ischaemic changes produced by VOP” value in assay [6] (insulin resistant rabbits, drug alone) is “significantly decreased”. In assay [7] (insulin resistant rabbits, nitroglycerin (0, 0.7 mg/kg/h) alone), the “M values of hyperinsulinaemic and euglycaemic glucose clamping” value is reported as “increased”. In assay [7] (nitroglycerin patch 0.07 mg/kg/h, metformin 5 mg/kg i.v., troglitazon 70 mg/kg p.os), this molecule had an Insulin sensitivity of 140.7%.
For the molecule `N=c1c[n+](N2CCOCC2)[n-]o1` [SIN-1, 3-morpholinosydnonimine], the insulin release result in assay [8] was “inhibit insulin release”.
With `O=[N+]([O-])O[C@@H]1CO[C@H]2[C@@H]1OC[C@@H]2O` [ISMN, isosorbide-5-mononitrate], the threshold anti-anginal dose in [9] was 30 mg/day. The ST-segment elevation was determined as 2.0 ± 0.09 mV in assay [3] (normal rabbits, 1 mg/kg per os controlled release ISMN, control 2.0); 1.9 ± 0.16 mV in [3] (setting [13]); 1.4 ± 0.12 mV in assay [3] (setting [14]). Also, the “anti-ischaemic effect (changes in ST-segment elevation)” value in assay [3] (setting [12]) is given as “statistically insignificant anti-ischaemic effect”. The Glucose infusion rate in assay [5] (normal rabbit, metformin 100 mg/kg p.os, ISMN controlled release 5 mg/kg p.os) was 16.30 ± 0.8200 mg/kg/min; in [5] (normal rabbits, 1 mg/kg per os controlled release ISMN, control 13.6), 14.2 ± 0.8 mg/kg/min; in assay [5] (setting [13]) it was 16.0 ± 0.9 mg/kg/min; in assay [5] (setting [14]), 16.3 ± 1.0 mg/kg/min; in assay [7] (metformin 100 mg/kg p.os, ISMN controlled release 5 mg/kg p.os), 14.00 ± 0.8900 mg/kg/min. For the same molecule, in assay [5] (normal rabbits, 1 mg/kg per os ISMN), the “metabolic (insulin sensitising) and anti-ischaemic effect” value is recorded as “without any effect”. Moreover, in [5] (setting [12]), the “metabolic (insulin sensitising) effect” value is “significant metabolic effect”. The “metabolic and anti-ischaemic effects” value in assay [5] (normal rabbits, 4 mg/kg and higher doses per os ISMN) is “metabolic and anti-ischaemic effects”. For the same molecule, the “M values of hyperinsulinaemic and euglycaemic glucose clamping” value in assay [5] (normal rabbits, drug alone vs control, isosorbide-5-mononitrate 1 mg/kg/day (Olicard 40), metformin 100 mg/kg/day p.os over 3 days) was “increased”; in assay [7] (insulin resistant rabbits vs control, ISMN 5 mg/kg/day (Olicard 40), metformin 100 mg/kg/day p.os over 3 days) it was “significantly increased”. The “threshold dose of insulin sensitising effect as share of the threshold dose of the anti-ischaemic effect” value in [5] (normal rabbits, per os ISMN) was found to be 50%. Moreover, in assay [5] (normal rabbits, per os extended-release ISMN), the “threshold dose of the insulin sensitising effect” value worked out at 2 mg/kg. Besides, in assay [7] (ISMN controlled release 5 mg/kg p.os, metformin 100 mg/kg p.os), the Insulin sensitivity is on record as 144.4%.
